These results are taken from patent EP2787001A1, “(E)-3-Aryl-3-oxoprop-1-enyl-2-phosphonic acid and its derivatives, methods for their preparation and their use” (Centrum Badan Molekularnych I Makromolekularnych Polskiej …, priority 2013, dated 2014).

The subject of assay [1] is DNA plasmid pcDNA 3.1 HisC (8.2 kb). Put plainly: Digestion of plasmid DNA with restriction enzyme Bam H1 after incubation with compounds (agarose gel electrophoresis). Format: biochemical. To be noted: compound 2 or 20 µM, overnight incubation at 37°C, then BamH1 2U/sample for 3 hours at 37°C; gel not shown. The method, then: The impact of compounds 1a and 1b has been tested on the digestion of DNA plasmid pcDNA 3.1 HisC (8.2 kb) with restriction enzyme Bam H1.
1. For this purpose, pcDNA 3.1 HisC plasmid DNA (0.6 µg) was dissolved in 1×BamH1 buffer and incubated overnight at 37°C with the following reference or test compounds:
The concentration of the reference and test compounds in each sample was 2 or 20 µM.
2. After overnight incubation, the reaction mixture was digested with BamH1 restriction enzyme (2U/sample) for 3 hours at 37°C. The total volume of the samples was 10 µL.
3. The reaction products were applied on 1% agarose gel and electrophoresis was performed in TAE buffer.

The test system of assay [2] is synthetic DNA duplex (23 nt- 5'TCTTCAAGAATTCAGGTCCTGAT 3'). Put plainly: Circular dichroism (CD) spectra of DNA with test compounds. Format: binding. To be noted: DNA duplex 2µM, compound 20µM, 0.2% DMSO, PBS, 23°C, immediately after addition. The method, then:
The ability of the test compounds 1a and 1b to interact with DNA was tested by the circular dichroism (CD) technique.
1. For this purpose, samples were prepared in PBS buffer containing: 2µM of synthetic DNA duplex (23 nt- 5'TCTTCAAGAATTCAGGTCCTGAT 3') or DNA of bovine thymus (0.2 mg/ml) and test compounds at a concentration of 20µM or 40µM for synthetic DNA duplex sample and thymus DNA sample, respectively. The samples contained 0.2% or 0.4% DMSO (for synthetic DNA duplex sample and thymus DNA sample, respectively), which is a solvent of the test compounds.
2. CD spectra (in the range from 200 nm to 320 nm) were recorded immediately after addition of the test compounds as well as after 1.5 h incubation. The measurement was carried out at 23°C in a quartz cuvette (optical path length 0.5 cm) using a spectroscope CD6 (Jobin-Yvon, France).
3. CD spectra of DNA incubated with the test compounds were compared with the control spectrum (spectrum was recorded for a sample of DNA (2µM or 0.2 mg/ml) in the presence of DMSO (final concentration of 0.2% or 0.4%).
On the technique in general: Circular dichroism is the unequal absorption of left and right circularly polarised light.

The structures appear in SMILES notation.

On to `COP(=O)(OC)/C(=C/c1ccc2ccc3cccc4ccc1c2c34)C(=O)c1ccc2c(c1)OCO2` [Compound 1a], for which, in assay [1], the “interaction with plasmid DNA: resistance to digestion by the endonucleolytic enzyme Bam H1” value is on record as “increasing its resistance to digestion”. For the same compound, in assay [2], the “change of CD spectrum of duplex DNA compared to the control (duplex DNA + DMSO)” value is recorded as “changes compared to the control sample”.
Taken in the same sequence, the figures for `O=C(/C(=C/c1ccc2ccc3cccc4ccc1c2c34)P(=O)(O)O)c1ccc2c(c1)OCO2` [Compound 1b, (Z)-3-(benzo[d][1,3]dioxol-5-yl)-1-(pyrene-1-yl)-3-oxoprop-1-en-2-ylphosphonic acid] were “increasing its resistance to digestion” and “changes compared to the control sample”.
Consider `COc1cccc2c1C(=O)c1c(O)c3c(c(O)c1C2=O)C[C@@](O)(C(C)=O)C[C@@H]3O[C@H]1C[C@H](N)[C@H](O)[C@H](C)O1` [Daunorubicin, reference compound], for which the “interaction with plasmid DNA: resistance to digestion by the endonucleolytic enzyme Bam H1” value in assay [1] is recorded as “increasing its resistance to digestion”. Moreover, the “change of CD spectrum of duplex DNA compared to the control (duplex DNA + DMSO)” value in assay [2] was “changing significantly its structure”.
